# “Also recorded” adds a separate entry of the source.
# What was measured:
# Gravimetric solubility = format: physicochemical; details: 20 °C, organic solvent or mixture, thermodynamic from solid, RT, read-out: Gravimetric Solubility at RT
# Protocol: Additional solids or solvents were added to visual solubility samples with vials less than 100 mg/mL to produce slurries at 20 and 50° C. for the subsequent equilibrium solubility assessment. The slurries were stirred at 20 and 50° C. overnight, filtered through 0.2 μm syringe filters and evaporated to dryness under reduced pressure at ambient temperature. Gravimetric solubility was calculated by dividing the dry solids residue mass (mg) by the solvent mass (g). The mg/g solubility values were then converted to mg/mL using solvent density.
# The solubility of Group D acetone and DMF solvates were assessed in the corresponding solvents.
# [1] = format: physicochemical; details: for Time of conversion to Form C in the solid-state: ambient temperature
# Protocol: Powder X-Ray Diffraction (PXRD). PXRD diffractograms were acquired on a PANalytical X'Pert Pro diffractometer using Ni-filtered Cu Ka (45 kV/40 mA) radiation and a step size of 0.03° 2θ and X'celerator™ RTMS (Real Time Multi-Strip) detector. Configuration on the incidental beam side: variable divergence slits (10 mm irradiated length), 0.04 rad Soller slits, fixed anti-scatter slit (0.50 o), and 10 mm beam mask. Configuration on the diffracted beam side: variable anti-scatter slit (10 mm observed length) and 0.04 rad Soller slit. Samples were mounted flat on zero-background Si wafers.
# Group D solvates converted to Form C in the solid-state at different rates, depending on the solvent included. […] No phase-pure Group D was isolated from acetone-containing solvents, indicating the unstable nature of this solvate.
# [2] = Polymorph screen of Exo-impurity; format: physicochemical
# [3] = Competitive ripening (relative thermodynamic stability of non-solvated forms)
# [4] = D9 solubility in the liquors at isolation temperature; format: physicochemical; details: organic solvent or mixture, thermodynamic from solid
# Protocol: At the end of each experiment, suspensions were equilibrated at the isolation temperature (25 or 5° C.) for at least 18 hours and the solids and liquors separated by centrifugation at the isolation temperature. The Exo/D9/D8 ratio (Exo-D9-THC-naphthoylester impurity/D9-THC-naphthoylester/D8-THC-naphthoylester) was determined in both the isolated solids and the liquors, from which the % Exo-depletion in the isolated solids was calculated. Several solids were also isolated at elevated temperatures to assess the impact of the isolation temperature on Exo-impurity depletion.
# In addition, the solubility of D9 in the liquors was determined in most of the explored solvents and used to estimate the yield.
# [5] = Experiment No. 20, Nitromethane, seed Form E
# [6] = Experiment No. 21, DMSO, seed Group D
# [7] = Experiment No. 22, Acetone, seed Group D
# [8] = Experiment No. 23, MeCN, seed Group D
# [9] = Experiment No. 24, P-Xylene/MeOH (10:90), seed Form E
structure (smiles),measurement,setting,value
CCCCCc1cc(OC(=O)c2ccc3ccccc3c2)c2c(c1)OC(C)(C)[C@@H]1CCC(C)=C[C@@H]21 [Acetone solvate of Group D],solubility,"Gravimetric solubility; solvent Acetone, Batch 7",98 mg/mL
same,Stability of solvate,[1]; no phase-pure Group D isolated from acetone-containing solvents,unstable
CCCCCc1cc(OC(=O)c2ccc3ccccc3c2)c2c(c1)OC(C)(C)[C@@H]1CCC(C)=C[C@@H]21 [DMF solvate of Group D],solubility,"Gravimetric solubility; solvent DMF, Batch 8",95 mg/mL
same,Time of conversion to Form C in the solid-state,[1],overnight
CCCCCc1cc(OC(=O)c2ccc3ccccc3c2)c2c(c1)OC(C)(C)[C@@H]1CCC(C)=C[C@@H]21 [DMSO solvate],Time of conversion to Form C in the solid-state,[1],within five days
"C=C1CC[C@@H]2[C@@H](C1)c1c(OC(=O)c3ccc4ccccc4c3)cc(CCCCC)cc1OC2(C)C [Exo, (6aR,10aR)-6,6-dimethyl-9-methylene-3-pentyl-6a,7,8,9,10,10a-hexahydro-6H-benzo[c]chromen-1-yl 2-naphthoate]",Form Isolated at 5° C. 6 D (Exo),[2]; [5],Input
same,Form Isolated at RT 5 D (Exo),[2]; [5],Input
same,Form Isolated at 5° C. 6 D (Exo),[2]; [6],Input
same,Form Isolated at RT 5 D (Exo),[2]; [6],Input
same,Form Isolated at 5° C. 6 D (Exo),[2]; [7],Input
same,Form Isolated at RT 5 D (Exo),[2]; [7],No
same,Form Isolated at 5° C. 6 D (Exo),[2]; [8],Input
same,Form Isolated at RT 5 D (Exo),[2]; [8],Input
same,Form Isolated at 5° C. 6 D (Exo),[2]; [9],Input
same,Form Isolated at RT 5 D (Exo),[2]; [9],Input
same,Polymorphism,[2]; seeded slurries at RT and 5° C.,No evidence of polymorphism
"CCCCCc1cc(OC(=O)c2ccc3ccccc3c2)c2c(c1)OC(C)(C)[C@@H]1CCC(C)=C[C@@H]21 [Form F, (6aR,10aR)-6a,7,8,10a-tetrahydro-6,6,9-trimethyl-3-pentyl-6H-dibenzo[b,d]pyran-1-yl ester]",Form conversion by PXRD,[1]; wet-cake after air-drying for five minutes at ambient,converted to Form E
same,Nature (thermodynamic stability of crystal form),[3]; Table 6 summary,Transient
"CCCCCc1cc(OC(=O)c2ccc3ccccc3c2)c2c(c1)OC(C)(C)[C@@H]1CCC(C)=C[C@@H]21 [Form H, (6aR,10aR)-6a,7,8,10a-tetrahydro-6,6,9-trimethyl-3-pentyl-6H-dibenzo[b,d]pyran-1-yl ester]",solubility,"[4]; crystallisation liquors over suspended solid, 5 °C, batch 5, Toluene/MeOH (3:7), seed G, heat T 25, isolation T 5, 10.0 mL/g, SP 11",71.4 mg/mL
same,solubility,"[4]; crystallisation liquors over suspended solid, 25 °C, batch 5, EtOAC/EtOH (2:8), seed H, heat T 50, isolation T 25, 8.0 mL/g, SP 17, Exp 47",36.2 mg/mL
same,solubility,"[4]; crystallisation liquors over suspended solid, 25 °C, batch 5, Toluene/EtOH (1:9), seed G/H, heat T 55, isolation T 25, 9.9 mL/g, SP 16, Exp 46",11.1 mg/mL
same,solubility,"[4]; crystallisation liquors over suspended solid, 25 °C, batch 5, Toluene/EtOH (1:9), seed H, heat T 40, isolation T 25, 10.0 mL/g, SP 19, Exp 54",19.6 mg/mL
same,solubility,"[4]; crystallisation liquors over suspended solid, 25 °C, batch 5, Toluene/EtOH (2:8), seed H, heat T 25, isolation T 25, 5.0 mL/g, SP 18, Exp 52",36.2 mg/mL
same,solubility,"[4]; crystallisation liquors over suspended solid, 25 °C, batch 5, Toluene/MeOH (1:9), seed H, heat T 50, isolation T 25, 15.0 mL/g, SP 17, Exp 48",6.8 mg/mL
same,solubility,"[4]; crystallisation liquors over suspended solid, 25 °C, batch 5, Toluene/MeOH (2:8), seed H, heat T 50, isolation T 25, 6.0 mL/g, SP 17, Exp 41",25.1 mg/mL
same,solubility,"[4]; crystallisation liquors over suspended solid, 25 °C, batch 5, Toluene/MeOH (3:7), seed G, heat T 25, isolation T 25, 5.5 mL/g, SP 7",69.9 mg/mL
same,solubility,"[4]; crystallisation liquors over suspended solid, 25 °C, batch 5, Toluene/MeOH (3:7), seed G, heat T 25, isolation T 25, 8.0 mL/g, SP 7",80.2 mg/mL
same,solubility,"[4]; crystallisation liquors over suspended solid, 25 °C, batch 5, Toluene/MeOH (3:7), seed G, heat T 25, isolation T 25, 10.0 mL/g, SP 7",64.7 mg/mL
same,solubility,"[4]; liquors of the equilibrated crystallisation suspension, 5 °C, Toluene/MeOH (3:7), isolation 5 °C, SP 11, 10.0 mL/g, read-out: D9 Solubility at Isolation T",71.4 mg/mL
same,solubility,"[4]; liquors of the equilibrated crystallisation suspension, 25 °C, EtOAC/EtOH (2:8), isolation 25 °C, SP 17, 8.0 mL/g, read-out: D9 Solubility at Isolation T",36.2 mg/mL
same,solubility,"[4]; liquors of the equilibrated crystallisation suspension, 25 °C, EtOAc/MeOH (1:3), isolation 25 °C, SP 21, 10.0 mL/g, read-out: D9 Solubility at Isolation T",8.9 mg/mL
same,solubility,"[4]; liquors of the equilibrated crystallisation suspension, 25 °C, Toluene/EtOH (1:9), isolation 25 °C, SP 16, 9.9 mL/g, read-out: D9 Solubility at Isolation T",11.1 mg/mL
same,solubility,"[4]; liquors of the equilibrated crystallisation suspension, 25 °C, Toluene/EtOH (1:9), isolation 25 °C, SP 19, 10.0 mL/g, read-out: D9 Solubility at Isolation T",19.6 mg/mL
same,solubility,"[4]; liquors of the equilibrated crystallisation suspension, 25 °C, Toluene/EtOH (2:8), isolation 25 °C, SP 18, 5.0 mL/g, read-out: D9 Solubility at Isolation T",36.2 mg/mL
same,solubility,"[4]; liquors of the equilibrated crystallisation suspension, 25 °C, Toluene/MeOH (1:9), isolation 25 °C, SP 17, 15.0 mL/g, read-out: D9 Solubility at Isolation T",6.8 mg/mL
same,solubility,"[4]; liquors of the equilibrated crystallisation suspension, 25 °C, Toluene/MeOH (2:8), isolation 25 °C, SP 17, 6.0 mL/g, read-out: D9 Solubility at Isolation T",25.1 mg/mL
same,solubility,"[4]; liquors of the equilibrated crystallisation suspension, 25 °C, Toluene/MeOH (3:7), isolation 25 °C, SP 7, 5.5 mL/g, read-out: D9 Solubility at Isolation T",69.9 mg/mL
same,solubility,"[4]; liquors of the equilibrated crystallisation suspension, 25 °C, Toluene/MeOH (3:7), isolation 25 °C, SP 7, 8.0 mL/g, read-out: D9 Solubility at Isolation T",80.2 mg/mL
same,solubility,"[4]; liquors of the equilibrated crystallisation suspension, 25 °C, Toluene/MeOH (3:7), isolation 25 °C, SP 7, 10.0 mL/g, read-out: D9 Solubility at Isolation T",64.7 mg/mL
same,solubility,"[4]; liquors of the equilibrated crystallisation suspension, 25 °C, batch 5, EtOAc/MeOH (1:3), seed H, heat T 55, isolation T 25, 10.0 mL/g, SP 21, Exp 34",8.9 mg/mL
same,Relative thermodynamic stability,"[3]; at 5° C., ripening incomplete within 29 days",likely the most-stable form
same,Relative thermodynamic stability,"[3]; between 25-60° C., non-solvate forming solvents",most stable non-solvated crystal form; also recorded: thermodynamically most-stable form

# From US12522576B2, “Polymorphs of D9-THC naphthoylester” (priority 2019, dated 2026)
